Measured values reported in patent US11912701B2, “Protein kinase inhibitors for promoting liver regeneration or reducing or preventing hepatocyte death” (HEPAREGENIX GMBH, priority 2018, dated 2024).

Assays:
[1] = molecular target: T1, MKK4 (Homo sapiens, UniProt P45985); test: KINOMEscan competition binding assay, MKK4; details: residual percent of control binding (PoC) at 100 nM
T1 construct: S84/D399; host or cells: HEK-293
T1 sequence (P45985 84-399): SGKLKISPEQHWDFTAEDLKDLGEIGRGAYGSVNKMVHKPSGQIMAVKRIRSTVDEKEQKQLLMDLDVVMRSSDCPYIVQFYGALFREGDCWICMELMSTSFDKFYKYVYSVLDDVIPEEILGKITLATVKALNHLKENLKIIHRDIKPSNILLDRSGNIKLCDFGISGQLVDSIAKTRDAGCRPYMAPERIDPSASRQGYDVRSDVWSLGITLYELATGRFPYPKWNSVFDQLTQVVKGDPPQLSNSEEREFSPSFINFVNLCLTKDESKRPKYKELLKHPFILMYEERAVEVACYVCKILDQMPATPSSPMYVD
Method in brief: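 KINOMEscan competition of compound versus immobilized ligand for DNA-tagged MKK4 expressed in HEK-293 cells. Bound kinase was quantified by qPCR after elution.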

[2] = molecular target: T2, BRaf (Homo sapiens, UniProt P15056); test: KINOMEscan competition binding assay, BRaf; details: ratio PoC (off-target)/PoC (MKK4)
T2 construct: purchased ProQinase GmbH, Freiburg, Germany (33PanQinase Assay Service)
Method in brief: (§1)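 DNA-tagged kinases expressed in HEK-293 cells compete between immobilized ligand on blocked beads and test compound at 100 nM; kinase retained on beads quantified by qPCR of the tag.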

[3] = molecular target: T3, MKK4 (Homo sapiens, UniProt P45985); test: 33PanQinase enzyme assay, MKK4; type: biochemical; details: assay 'IC50'; read-out: Potency MKK4 (IC50)
T3 construct: purchased ProQinase GmbH, Freiburg, Germany (33PanQinase Assay Service)
T3 sequence (P45985 1-399): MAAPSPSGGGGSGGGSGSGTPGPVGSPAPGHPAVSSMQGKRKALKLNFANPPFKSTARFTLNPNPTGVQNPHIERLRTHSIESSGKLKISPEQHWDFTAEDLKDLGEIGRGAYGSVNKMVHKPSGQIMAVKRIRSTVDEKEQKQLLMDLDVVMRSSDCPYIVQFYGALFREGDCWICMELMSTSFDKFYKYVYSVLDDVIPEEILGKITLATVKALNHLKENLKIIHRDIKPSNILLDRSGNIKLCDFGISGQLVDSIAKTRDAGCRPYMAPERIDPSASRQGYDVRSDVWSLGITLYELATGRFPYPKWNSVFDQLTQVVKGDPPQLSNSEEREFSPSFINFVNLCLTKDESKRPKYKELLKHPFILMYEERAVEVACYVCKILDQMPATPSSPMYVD
Method in brief: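 Radiometric 33PanQinase assay: kinase, substrate, ATP and compound in standard buffer, 60 min at 30 °C; 33Pi incorporation read by scintillation counting.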

[4] = molecular target: T2, BRaf; test: 33PanQinase enzyme assay, BRaf; type: biochemical; details: ratio IC50(BRaf)/IC50(MKK4)
Method in brief: (§2)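 Radiometric 33PanQinase format: kinase with substrate, ATP and compound (added in 10% DMSO stock) incubated 60 min at 30° C, stopped with 2% H3PO4, ^33Pi incorporation counted by scintillation. Single-concentration data given as % residual activity; IC50 by least-squares fit, with selectivity as IC50(off-target)/IC50(MKK4).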

[5] = molecular target: T4, MKK7 (Homo sapiens, UniProt O14733); test: KINOMEscan competition binding assay, MKK7; parameters: M1/R419; host or cells: HEK-293; details: ratio PoC (off-target)/PoC (MKK4)
T4 sequence (O14733 1-419): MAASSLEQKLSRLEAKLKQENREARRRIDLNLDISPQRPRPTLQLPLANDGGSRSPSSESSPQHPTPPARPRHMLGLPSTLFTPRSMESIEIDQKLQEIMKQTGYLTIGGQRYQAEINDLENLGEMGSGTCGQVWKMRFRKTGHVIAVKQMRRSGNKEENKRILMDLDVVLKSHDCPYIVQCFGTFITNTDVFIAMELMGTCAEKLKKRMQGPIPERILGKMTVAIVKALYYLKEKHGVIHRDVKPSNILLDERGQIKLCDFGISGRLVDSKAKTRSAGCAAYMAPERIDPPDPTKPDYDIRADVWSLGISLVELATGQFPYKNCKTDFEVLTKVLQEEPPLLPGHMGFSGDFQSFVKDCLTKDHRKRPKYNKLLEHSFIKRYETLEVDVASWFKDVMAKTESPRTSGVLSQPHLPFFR
Method in brief: as §1

[6] = molecular target: T5, JNK1 (Homo sapiens, UniProt P45983); test: KINOMEscan competition binding assay, JNK1; parameters: M1/Q384; host or cells: HEK-293; details: ratio PoC (off-target)/PoC (MKK4)
Method in brief: as §1
Target sequence in this assay (P45983 1-384 isoform P45983-2): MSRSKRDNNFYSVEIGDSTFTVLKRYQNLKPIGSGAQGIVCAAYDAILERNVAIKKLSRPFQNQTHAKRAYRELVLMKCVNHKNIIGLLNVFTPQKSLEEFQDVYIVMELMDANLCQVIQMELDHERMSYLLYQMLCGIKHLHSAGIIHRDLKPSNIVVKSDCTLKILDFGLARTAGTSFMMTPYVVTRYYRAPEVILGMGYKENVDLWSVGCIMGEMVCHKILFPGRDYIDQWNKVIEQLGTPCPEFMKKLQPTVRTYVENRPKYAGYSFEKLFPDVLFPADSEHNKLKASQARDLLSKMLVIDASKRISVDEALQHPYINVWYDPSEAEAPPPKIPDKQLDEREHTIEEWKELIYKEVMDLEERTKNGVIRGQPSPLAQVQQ

[7] = molecular target: T5, JNK1; test: 33PanQinase enzyme assay, JNK1; type: biochemical; parameters: purchased ProQinase GmbH, Freiburg, Germany (33PanQinase Assay Service); details: ratio IC50(JNK1)/IC50(MKK4)
Method in brief: as §2
Target sequence in this assay (P45983 whole entry): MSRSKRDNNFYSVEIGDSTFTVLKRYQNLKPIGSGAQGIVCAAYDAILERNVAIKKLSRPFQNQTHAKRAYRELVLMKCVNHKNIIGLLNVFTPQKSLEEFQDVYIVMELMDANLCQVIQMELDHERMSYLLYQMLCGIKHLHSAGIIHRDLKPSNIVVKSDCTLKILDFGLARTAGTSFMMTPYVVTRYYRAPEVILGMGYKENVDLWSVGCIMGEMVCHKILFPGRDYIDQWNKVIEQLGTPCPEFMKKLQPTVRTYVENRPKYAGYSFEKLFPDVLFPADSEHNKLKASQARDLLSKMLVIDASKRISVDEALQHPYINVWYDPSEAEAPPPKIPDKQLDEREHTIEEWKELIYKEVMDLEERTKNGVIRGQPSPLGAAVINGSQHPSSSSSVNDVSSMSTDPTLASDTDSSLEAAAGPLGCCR

[8] = molecular target: T4, MKK7; test: 33PanQinase enzyme assay, MKK7; type: biochemical; parameters: purchased ProQinase GmbH, Freiburg, Germany (33PanQinase Assay Service); details: ratio IC50(MKK7)/IC50(MKK4)
Method in brief: as §2

T2 sequence (P15056 whole entry, species assumed): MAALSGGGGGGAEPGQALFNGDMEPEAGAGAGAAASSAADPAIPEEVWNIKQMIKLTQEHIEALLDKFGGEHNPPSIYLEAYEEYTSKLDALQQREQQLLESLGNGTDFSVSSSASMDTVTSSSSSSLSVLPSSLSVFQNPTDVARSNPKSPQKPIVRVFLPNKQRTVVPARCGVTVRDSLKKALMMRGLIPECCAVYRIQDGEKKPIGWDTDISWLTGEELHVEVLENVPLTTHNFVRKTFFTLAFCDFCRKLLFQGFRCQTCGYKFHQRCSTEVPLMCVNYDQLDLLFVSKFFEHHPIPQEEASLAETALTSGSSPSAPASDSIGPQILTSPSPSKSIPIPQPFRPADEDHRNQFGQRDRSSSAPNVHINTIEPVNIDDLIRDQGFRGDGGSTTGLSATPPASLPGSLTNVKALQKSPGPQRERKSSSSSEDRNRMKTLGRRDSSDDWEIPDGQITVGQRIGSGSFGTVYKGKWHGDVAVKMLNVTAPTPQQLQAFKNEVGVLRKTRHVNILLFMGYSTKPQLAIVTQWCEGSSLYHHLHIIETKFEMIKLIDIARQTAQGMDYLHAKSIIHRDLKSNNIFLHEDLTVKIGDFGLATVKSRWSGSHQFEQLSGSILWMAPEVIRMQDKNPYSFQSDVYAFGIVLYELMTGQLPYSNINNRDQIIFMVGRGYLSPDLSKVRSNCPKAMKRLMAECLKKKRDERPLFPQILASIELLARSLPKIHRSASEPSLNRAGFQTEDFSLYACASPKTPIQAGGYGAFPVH

MKK4 [% Ctrl @ 100 nM [1]	selectivity based on % Ctrl @100 nM vs. Braf [2]	IC50 [3] [nM]	selectivity based on % Ctrl @100 nM vs. MKK7 [5]	selectivity based on % Ctrl @100 nM vs. JNK1 [6]	Selectivity IVIKK7, IC50(off-target)/IC50(MKK4) [8]	SMILES	Selectivity Braf, IC50(off-target)/IC50(MKK4) [4]	Selectivity JNK1, IC50(off-target)/IC50(MKK4) [7]
+++ (PoC < 1)	+++ (Ratio > 100)	< 100	+++ (Ratio > 100)	+++ (Ratio > 100)	+++ (IC50(off-target)/IC50(MKK4) > 100)	COc1ccc(-c2cnc3[nH]cc(C(=O)c4ccc(F)c(NS(=O)(=O)CCC(F)(F)F)c4F)c3c2)cn1 [Example 158, N-(2,6-difluoro-3-(5-(6-methoxypyridin-3-yl)-1H-pyrrolo[2,3-b]pyridine-3-carbonyl)phenyl)-3,3,3-trifluoropropane-1-sulfonamide]	++ (100 ≥ IC50(off-target)/IC50(MKK4) > 10)	+++ (IC50(off-target)/IC50(MKK4) > 100)
+++ (PoC < 1)	+++ (Ratio > 100)	< 100	+++ (Ratio > 100)	+++ (Ratio > 100)	+++ (IC50(off-target)/IC50(MKK4) > 100)	CCCS(=O)(=O)Nc1c(F)ccc(C(=O)c2c[nH]c3ncc(-c4ccc(C5CC5)nc4)cc23)c1F [Example 159, N-(3-(5-(6-cyclopropylpyridin-3-yl)-1H-pyrrolo[2,3-b]pyridine-3-carbonyl)-2,6-difluorophenyl)propane-1-sulfonamide]	++ (100 ≥ IC50(off-target)/IC50(MKK4) > 10)	+++ (IC50(off-target)/IC50(MKK4) > 100)
+++ (PoC < 1)	+++ (Ratio > 100)	< 100	+++ (Ratio > 100)	+++ (Ratio > 100)	+++ (IC50(off-target)/IC50(MKK4) > 100)	CCCS(=O)(=O)Nc1c(F)ccc(C(=O)c2c[nH]c3ncc(-c4ccc(NC)nc4)cc23)c1F [Example 160, N-(2,6-difluoro-3-(5-(6-(methylamino)pyridin-3-yl)-1H-pyrrolo[2,3-b]pyridine-3-carbonyl)phenyl)propane-1-sulfonamide]	++ (100 ≥ IC50(off-target)/IC50(MKK4) > 10)	++ (100 ≥ IC50(off-target)/IC50(MKK4) > 10)
+++ (PoC < 1)	+++ (Ratio > 100)	< 100	+++ (Ratio > 100)	+++ (Ratio > 100)	+++ (IC50(off-target)/IC50(MKK4) > 100)	CCCS(=O)(=O)Nc1c(F)ccc(C(=O)c2c[nH]c3ncc(-c4ccc(N(C)C)nc4)cc23)c1F [Example 161, N-(3-(5-(6-(dimethylamino)pyridin-3-yl)-1H-pyrrolo[2,3-b]pyridine-3-carbonyl)-2,6-difluorophenyl)propane-1-sulfonamide]	++ (100 ≥ IC50(off-target)/IC50(MKK4) > 10)	++ (100 ≥ IC50(off-target)/IC50(MKK4) > 10)
+++ (PoC < 1)	+++ (Ratio > 100)	100 to 1000	+++ (Ratio > 100)	+++ (Ratio > 100)	+++ (IC50(off-target)/IC50(MKK4) > 100)	CCCS(=O)(=O)Nc1c(F)ccc(C(=O)c2c[nH]c3ncc(-c4ccc(N5CCC5)nc4)cc23)c1F [Example 162, N-(3-(5-(6-(azetidin-1-yl)pyridin-3-yl)-1H-pyrrolo[2,3-b]pyridine-3-carbonyl)-2,6-difluorophenyl)propane-1-sulfonamide]	++ (100 ≥ IC50(off-target)/IC50(MKK4) > 10)	++ (100 ≥ IC50(off-target)/IC50(MKK4) > 10)
+++ (PoC < 1)	+++ (Ratio > 100)	< 100	+++ (Ratio > 100)	+++ (Ratio > 100)	+++ (IC50(off-target)/IC50(MKK4) > 100)	C=Cc1ccc(-c2cnc3[nH]cc(C(=O)c4ccc(F)c(NS(=O)(=O)CCC)c4F)c3c2)cn1 [Example 163, N-(2,6-difluoro-3-(5-(6-vinylpyridin-3-yl)-1H-pyrrolo[2,3-b]pyridine-3-carbonyl)phenyl)propane-1-sulfonamide]	++ (100 ≥ IC50(off-target)/IC50(MKK4) > 10)	++ (100 ≥ IC50(off-target)/IC50(MKK4) > 10)
+++ (PoC < 1)	+++ (Ratio > 100)	< 100	+++ (Ratio > 100)	+++ (Ratio > 100)	+++ (IC50(off-target)/IC50(MKK4) > 100)	O=C(c1ccc(F)c(NS(=O)(=O)CCC(F)(F)F)c1F)c1c[nH]c2ncc(-c3cnc(N4CCCC4)nc3)cc12 [Example 179, N-(2,6-difluoro-3-(5-(2-(pyrrolidin-1-yl)pyrimidin-5-yl)-1H-pyrrolo[2,3-b]pyridine-3-carbonyl)phenyl)-3,3,3-trifluoropropane-1-sulfonamide]	+++ (IC50(off-target)/IC50(MKK4) > 100)	+++ (IC50(off-target)/IC50(MKK4) > 100)
+++ (PoC < 1)	+++ (Ratio > 100)	< 100	+++ (Ratio > 100)	+++ (Ratio > 100)	+++ (IC50(off-target)/IC50(MKK4) > 100)	O=C(c1ccc(F)c(NS(=O)(=O)CCC(F)(F)F)c1F)c1c[nH]c2ncc(-c3cnc(N4CCC4)nc3)cc12 [Example 180, N-(3(5-(2-(azetidin-1-yl)pyrimidin-5-yl)-1H-pyrrolo[2,3-b]pyridine-3-carbonyl)-2,6-difluorophenyl)-3,3,3-trifluoropropane-1-sulfonamide]	+++ (IC50(off-target)/IC50(MKK4) > 100)	+++ (IC50(off-target)/IC50(MKK4) > 100)
